Results published in patent US12054466B2, “Compounds for the treatment of clostridium difficile infection” (University of Notre Dame du Lac, priority 2016, dated 2024).
Values after ≈ are worked out from the molar mass of the structure shown. Read-outs that look alike come from different tables or passages of the source.

Assays:
Format in all cases: cell-based
Veillonella sp. HM-49 = experiment: MIC against common gut bacteria; details: for MIC: SP.HM49, Veillonella sp. HM-49, read-out: MIC
Bacteroides caccae = experiment: MIC against common gut bacteria; details: read-out: MIC
C. difficile BAA-1803 = experiment: MIC, broth microdilution; details: Clostridioides difficile, BAA1803, C. difficile BAA-1803 (NAP1, ribotype 027)
C. difficile BAA-1801 = experiment: MIC, broth microdilution; details: Clostridioides difficile, BAA1801, C. difficile BAA-1801 (nontoxigenic)
[1] = tested on: Lactobacillus gasseri HM-644; experiment: MIC against common gut bacteria; details: for MIC: HM644, Lactobacillus gasseri HM-644, read-out: MIC
C. difficile NR49302 = experiment: MIC, broth microdilution; details: Clostridioides difficile, C. difficile NR49302 (NAP4, ribotype 020)
C. difficile NR49305 = experiment: MIC, broth microdilution; details: Clostridioides difficile, C. difficile NR49305 (NAP6, ribotype 002)
[2] = tested on: Bacteroides fragilis HM-709; experiment: MIC against common gut bacteria; details: HM709; Bacteroides fragilis HM-709; read-out: MIC
C. difficile BAA-1804 = experiment: MIC, broth microdilution; details: Clostridioides difficile, BAA1804, C. difficile BAA-1804
Bacteroides fragilis = experiment: MIC against common gut bacteria; details: read-out: MIC
[3] = tested on: Fusobacterium nucleatum HM-992; experiment: MIC against common gut bacteria; details: HM992; Fusobacterium nucleatum HM-992; read-out: MIC
Bacteroides eggerthii = experiment: MIC against common gut bacteria; details: read-out: MIC
C. difficile BAA-1812 = experiment: MIC, broth microdilution; details: Clostridioides difficile, BAA1812, C. difficile BAA-1812
Eubacterium sp. HM-178 = experiment: MIC against common gut bacteria; details: SP.HM178
[4] = tested on: Corynebacterium sp. HM-784; experiment: MIC against common gut bacteria; details: SP.HM784; Corynebacterium sp. HM-784; incubated aerobically; read-out: MIC
Method: Minimally-inhibitory concentrations. MICs for C. difficile strains and the common gut bacteria were determined using broth microdilution techniques as reported earlier using brucella broth supplemented with hemin and vitamin K or supplemented BHIS broth (Babakhani et al., J Antimicrob Chemother 2013, 68(3), 515). Lactobacillus MRS broth was used for lactobacillus strains. […] All incubations unless specified otherwise were carried out at 24 or 48 h at 37° C. in an anaerobic chamber (Whitley DG250 workstation, Microbiology International, Frederick, MD). Corynebacterium and lactobacillus species were incubated aerobically.

Bacteroides ovatus = experiment: MIC against common gut bacteria; details: read-out: MIC
C. difficile ATCC43598 = experiment: MIC, broth microdilution; details: Clostridioides difficile, C. difficile ATCC43598
C. difficile NR49318 = experiment: MIC, broth microdilution; details: Clostridioides difficile, C. difficile NR49318 (NAP11, ribotype 106)
C. difficile NR49294 = experiment: MIC, broth microdilution; details: Clostridioides difficile, C. difficile NR49294 (NAP4, ribotype 014)
C. difficile BAA-1814 = experiment: MIC, broth microdilution; details: Clostridioides difficile, BAA1814, C. difficile BAA-1814
[5] = tested on: Bifidobacterium longum HM-846; experiment: MIC against common gut bacteria; details: HM846; Bifidobacterium longum HM-846; read-out: MIC
Bacteroides vulgatus = experiment: MIC against common gut bacteria; details: Phocaeicola vulgatus; Bacteroides vulgatus; read-out: MIC
[6] = tested on: Lactobacillus reuteri HM-102; experiment: MIC against common gut bacteria; details: for MIC: Limosilactobacillus reuteri, HM102, Lactobacillus reuteri HM-102, read-out: MIC
C. difficile BAA-1870 = experiment: MIC, broth microdilution; details: Clostridioides difficile, BAA1870, C. difficile BAA-1870 (NAP1, ribotype 27)
C. difficile NR49292 = experiment: MIC, broth microdilution; details: Clostridioides difficile, C. difficile NR49292 (NAP2, ribotype 001_072)
C. difficile NR49310 = experiment: MIC, broth microdilution; details: Clostridioides difficile, C. difficile NR49310 (NAP7, ribotype 078)
C. difficile ATCC43255 = experiment: MIC, broth microdilution; details: Clostridioides difficile, C. difficile ATCC43255

## Oc1ccc(-c2nc(-c3ccc(OC4CCCC4)cc3)no2)cc1 [Compound 2]
Veillonella sp. HM-49
  MIC: > 128 µg/mL
Veillonella sp. HM-49; in words
  Activity against Veillonella sp.: not active
Bacteroides caccae
  MIC: 2 µg/mL (≈ 6.2 µM)
C. difficile BAA-1803; 24 h, read-out: MIC at 24 h
  MIC: 1 µg/mL (≈ 3.1 µM)
C. difficile BAA-1803; 48 h, read-out: MIC at 48 h
  MIC: 2 µg/mL (≈ 6.2 µM)
C. difficile BAA-1801; 24 h, read-out: MIC at 24 h
  MIC: 2 µg/mL (≈ 6.2 µM)
C. difficile BAA-1801; 48 h, read-out: MIC at 48 h
  MIC: 2 µg/mL (≈ 6.2 µM)
[1]
  MIC: > 128 µg/mL
[1]; in words
  Activity against Lactobacillus gasseri: not active
C. difficile NR49302; 24 h, read-out: MIC at 24 h
  MIC: 2 µg/mL (≈ 6.2 µM)
C. difficile NR49302; 48 h, read-out: MIC at 48 h
  MIC: 2 µg/mL (≈ 6.2 µM)
C. difficile NR49305; 24 h, read-out: MIC at 24 h
  MIC: 2 µg/mL (≈ 6.2 µM)
C. difficile NR49305; 48 h, read-out: MIC at 48 h
  MIC: 2 µg/mL (≈ 6.2 µM)
[2]
  MIC: 1 µg/mL (≈ 3.1 µM)
C. difficile BAA-1804; 24 h, read-out: MIC at 24 h
  MIC: 2 µg/mL (≈ 6.2 µM)
C. difficile BAA-1804; 48 h, read-out: MIC at 48 h
  MIC: 2 µg/mL (≈ 6.2 µM)
Bacteroides fragilis
  MIC: 2 µg/mL (≈ 6.2 µM)
[3]
  MIC: 2 µg/mL (≈ 6.2 µM)
Bacteroides eggerthii
  MIC: 1 µg/mL (≈ 3.1 µM)
C. difficile BAA-1812; 24 h, read-out: MIC at 24 h
  MIC: 2 µg/mL (≈ 6.2 µM)
C. difficile BAA-1812; 48 h, read-out: MIC at 48 h
  MIC: 2 µg/mL (≈ 6.2 µM)
Eubacterium sp. HM-178
  MIC: 4 µg/mL (≈ 12.4 µM)
[4]
  MIC: 0.5 µg/mL (≈ 1.55 µM)
Bacteroides ovatus
  MIC: 2 µg/mL (≈ 6.2 µM)
C. difficile ATCC43598; 24 h, read-out: MIC at 24 h
  MIC: 1 µg/mL (≈ 3.1 µM)
C. difficile ATCC43598; 48 h, read-out: MIC at 48 h
  MIC: 2 µg/mL (≈ 6.2 µM)
C. difficile NR49318; 24 h, read-out: MIC at 24 h
  MIC: 2 µg/mL (≈ 6.2 µM)
C. difficile NR49318; 48 h, read-out: MIC at 48 h
  MIC: 4 µg/mL (≈ 12.4 µM)
C. difficile NR49294; 24 h, read-out: MIC at 24 h
  MIC: 1 µg/mL (≈ 3.1 µM)
C. difficile NR49294; 48 h, read-out: MIC at 48 h
  MIC: 2 µg/mL (≈ 6.2 µM)
C. difficile BAA-1814; 24 h, read-out: MIC at 24 h
  MIC: 2 µg/mL (≈ 6.2 µM)
C. difficile BAA-1814; 48 h, read-out: MIC at 48 h
  MIC: 2 µg/mL (≈ 6.2 µM)
[5]
  MIC: 1 µg/mL (≈ 3.1 µM)
Bacteroides vulgatus
  MIC: 2 µg/mL (≈ 6.2 µM)
[6]
  MIC: > 128 µg/mL
[6]; in words
  Activity against Lactobacillus reuteri: not active
C. difficile BAA-1870; 24 h, read-out: MIC at 24 h
  MIC: 2 µg/mL (≈ 6.2 µM)
C. difficile BAA-1870; 48 h, read-out: MIC at 48 h
  MIC: 2 µg/mL (≈ 6.2 µM)
C. difficile NR49292; 24 h, read-out: MIC at 24 h
  MIC: 1 µg/mL (≈ 3.1 µM)
C. difficile NR49292; 48 h, read-out: MIC at 48 h
  MIC: 2 µg/mL (≈ 6.2 µM)
C. difficile NR49310; 24 h, read-out: MIC at 24 h
  MIC: 2 µg/mL (≈ 6.2 µM)
C. difficile NR49310; 48 h, read-out: MIC at 48 h
  MIC: 4 µg/mL (≈ 12.4 µM)
C. difficile ATCC43255; 24 h, read-out: MIC at 24 h
  MIC: 2 µg/mL (≈ 6.2 µM)
C. difficile ATCC43255; 48 h, read-out: MIC at 48 h
  MIC: 2 µg/mL (≈ 6.2 µM)

## CCc1c(Cl)c(O)c(Cl)c(O)c1C(=O)O[C@H]1[C@H](O)[C@H](OC)[C@H](OC/C2=C\C=C\C[C@H](O)/C(C)=C/[C@H](CC)[C@@H](O[C@@H]3OC(C)(C)[C@@H](OC(=O)C(C)C)[C@H](O)[C@@H]3O)/C(C)=C/C(C)=C/C[C@@H]([C@@H](C)O)OC2=O)O[C@@H]1C [fidaxomicin]
Veillonella sp. HM-49
  MIC: 8 µg/mL (≈ 7.56 µM)
Bacteroides caccae
  MIC: > 32 µg/mL
C. difficile BAA-1803; 24 h, read-out: MIC at 24 h
  MIC: 0.5 µg/mL (≈ 0.473 µM)
C. difficile BAA-1803; 48 h, read-out: MIC at 48 h
  MIC: 1 µg/mL (≈ 0.945 µM)
C. difficile BAA-1801; 24 h, read-out: MIC at 24 h
  MIC: 0.03 µg/mL (≈ 0.0284 µM)
C. difficile BAA-1801; 48 h, read-out: MIC at 48 h
  MIC: 0.125 µg/mL (≈ 0.118 µM)
[1]
  MIC: 2 µg/mL (≈ 1.89 µM)
C. difficile NR49302; 24 h, read-out: MIC at 24 h
  MIC: 0.03 µg/mL (≈ 0.0284 µM)
C. difficile NR49302; 48 h, read-out: MIC at 48 h
  MIC: 0.03 µg/mL (≈ 0.0284 µM)
C. difficile NR49305; 24 h, read-out: MIC at 24 h
  MIC: 0.01 µg/mL (≈ 0.00945 µM)
C. difficile NR49305; 48 h, read-out: MIC at 48 h
  MIC: 0.01 µg/mL (≈ 0.00945 µM)
[2]
  MIC: > 32 µg/mL
C. difficile BAA-1804; 24 h, read-out: MIC at 24 h
  MIC: < 0.25 µg/mL
C. difficile BAA-1804; 48 h, read-out: MIC at 48 h
  MIC: < 0.25 µg/mL
Bacteroides fragilis
  MIC: > 32 µg/mL
[3]
  MIC: < 0.06 µg/mL
Bacteroides eggerthii
  MIC: > 32 µg/mL
C. difficile BAA-1812; 24 h, read-out: MIC at 24 h
  MIC: 0.015 µg/mL (≈ 0.0142 µM)
C. difficile BAA-1812; 48 h, read-out: MIC at 48 h
  MIC: 0.125 µg/mL (≈ 0.118 µM)
Eubacterium sp. HM-178
  MIC: 16 µg/mL (≈ 15.1 µM)
[4]
  MIC: < 0.06 µg/mL
Bacteroides ovatus
  MIC: > 32 µg/mL
C. difficile ATCC43598; 24 h, read-out: MIC at 24 h
  MIC: 0.01 µg/mL (≈ 0.00945 µM)
C. difficile ATCC43598; 48 h, read-out: MIC at 48 h
  MIC: 0.01 µg/mL (≈ 0.00945 µM)
C. difficile NR49318; 24 h, read-out: MIC at 24 h
  MIC: 0.25 µg/mL (≈ 0.236 µM)
C. difficile NR49318; 48 h, read-out: MIC at 48 h
  MIC: 0.125 µg/mL (≈ 0.118 µM)
C. difficile NR49294; 24 h, read-out: MIC at 24 h
  MIC: ≤ 0.01 µg/mL
C. difficile NR49294; 48 h, read-out: MIC at 48 h
  MIC: 0.01 µg/mL (≈ 0.00945 µM)
C. difficile BAA-1814; 24 h, read-out: MIC at 24 h
  MIC: ≤ 0.01 µg/mL
C. difficile BAA-1814; 48 h, read-out: MIC at 48 h
  MIC: 0.03 µg/mL (≈ 0.0284 µM)
[5]
  MIC: < 0.01 µg/mL
Bacteroides vulgatus
  MIC: > 32 µg/mL
[6]
  MIC: > 32 µg/mL
C. difficile BAA-1870; 24 h, read-out: MIC at 24 h
  MIC: < 0.25 µg/mL
C. difficile BAA-1870; 48 h, read-out: MIC at 48 h
  MIC: 0.25 µg/mL (≈ 0.236 µM)
C. difficile NR49292; 24 h, read-out: MIC at 24 h
  MIC: 0.25 µg/mL (≈ 0.236 µM)
C. difficile NR49292; 48 h, read-out: MIC at 48 h
  MIC: 0.5 µg/mL (≈ 0.473 µM)
C. difficile NR49310; 24 h, read-out: MIC at 24 h
  MIC: ≤ 0.01 µg/mL
C. difficile NR49310; 48 h, read-out: MIC at 48 h
  MIC: ≤ 0.01 µg/mL
C. difficile ATCC43255; 24 h, read-out: MIC at 24 h
  MIC: 0.01 µg/mL (≈ 0.00945 µM)
C. difficile ATCC43255; 48 h, read-out: MIC at 48 h
  MIC: 0.01 µg/mL (≈ 0.00945 µM)
